What was measured:
[1] = system: inflammatory bowel disease IBD (ulcerative colitis); test: Tri-nitrobenzene sulfunic acid induced ulcerative colitis in rats, MPO activity in colon; assay type: in vivo, Sprague dawley rats; settings: 25 mg/kg rectally, inflamed area of the colon, FIG. 7
Method: The exemplary RNX006 compound shown in FIG. 5 F, to which reference is now made, was tested for the effect on the inflammatory bowel disease IBD (ulcerative colitis) in rats as follows. Male Sprague dawley rats were used in this study. Briefly, ulcerative colitis was induced by tri-nitrobenzene sulfunic acid as described in the literature. Rats were divided into 4 groups, (−) sham (healthy, (+) control ulcerative colitis (UC, not treated), UC treated with RNX006 (25 mg/kg), and UC treated with 5-amino salicylic acid (5-ASA 25 mg/kg). RNX006 and 5-ASA were administered rectally during all the period of the experiment. At the end of the experiment animals were sacrificed and the colon was isolated to test the severity of the inflammation. The severity of the inflammation was tested by measurement of the myeloperoxidase activity (MPO activity) in the inflamed area of the colon.

ovine COX-2 = target: T1, ovine COX-2 (Ovis aries, UniProt P79208); test: In vitro COX-2 inhibition, enzyme immuno assay (EIA) kit; assay type: biochemical; settings: for IC50: ovine COX-2, EIA, duplicate determinations; for Ration (COX ½): ratio of COX-1 IC50 to COX-2 IC50
T1 construct: purchased Cayman Chemical 560101
T1 sequence (P79208 17-603): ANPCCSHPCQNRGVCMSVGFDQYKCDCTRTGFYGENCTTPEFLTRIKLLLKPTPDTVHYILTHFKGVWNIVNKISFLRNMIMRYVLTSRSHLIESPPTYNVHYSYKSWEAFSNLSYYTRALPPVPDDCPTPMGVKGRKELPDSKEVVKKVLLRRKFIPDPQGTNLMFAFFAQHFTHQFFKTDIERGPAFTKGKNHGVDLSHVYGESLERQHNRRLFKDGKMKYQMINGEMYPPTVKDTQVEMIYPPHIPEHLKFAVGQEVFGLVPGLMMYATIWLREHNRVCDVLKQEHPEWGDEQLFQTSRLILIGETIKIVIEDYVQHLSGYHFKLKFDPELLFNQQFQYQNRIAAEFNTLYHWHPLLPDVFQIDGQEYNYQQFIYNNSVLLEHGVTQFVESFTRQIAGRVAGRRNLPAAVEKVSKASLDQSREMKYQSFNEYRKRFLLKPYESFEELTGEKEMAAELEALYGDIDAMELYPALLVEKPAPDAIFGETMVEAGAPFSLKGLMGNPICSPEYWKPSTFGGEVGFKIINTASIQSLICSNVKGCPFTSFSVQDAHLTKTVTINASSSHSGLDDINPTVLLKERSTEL
Method: (§1) The exemplary conjugates shown in FIGS. 5 A-E, to which reference is now made, were tested for inhibition of COX-1 and COX-2 to in-vitro activity The ability of the test compounds listed in the Table 1 to inhibit ovine COX-1 and COX-2 (IC50 values, […]) was determined using an enzyme immuno assay (EIA) kit catalog number 560101, Cayman Chemical, Ann Arbor, Mich., USA) according to the manufacturers instructions.
(§2) Cyclooxygenase catalyzes the first step in the biosynthesis of arachidonic acid (AA) to PGH2. PGF2α, produced from PGH2 by reduction with stannous chloride, is measured by enzyme immunoassay (ACETM competitive EIA).
(§3) Stock solutions of test compounds were dissolved in a minimum volume of DMSO. Briefly, to a series of supplied reaction buffer solutions (960 μL, 0.1M Tris-HCl pH 8.0 containing 5 mM EDTA and 2 mM phenol) with either COX-1 or COX-2 (10 μL) enzyme in the presence of heme (10 μL) were added 10 μL of various concentrations of test drug solutions (0.01, 0.1, 1, 10, 50, and 100 μM in a final volume of 1 mL). These solutions were incubated for a period of 5 min at 37° C. after which 10 μL of AA (100 μM) solution were added and the COX reaction was stopped by the addition of 50 μL of 1M HCl after 2 min. PGF2α, produced from PGH2 by reduction with stannous chloride was measured by enzyme immunoassay.
(§4) This assay is based on the competition between PGs and a PG-acetylcholinesterase conjugate (PG tracer) for a limited amount of PG antiserum. The amount of PG tracer that is able to bind to the PG antiserum is inversely proportional to the concentration of PGs in the wells since the concentration of PG tracer is held constant while the concentration of PGs varies. The concentration of the test compound causing 50% inhibition (IC50, μM) was calculated from the concentration-inhibition response curve (duplicate determinations).

ovine COX-1 = target: T2, ovine COX-1 (Ovis aries, UniProt P05979); test: In vitro COX-1 inhibition, enzyme immuno assay (EIA) kit; assay type: biochemical; settings: ovine COX-1, EIA, duplicate determinations
T2 construct: purchased Cayman Chemical 560101
T2 sequence (P05979 25-600): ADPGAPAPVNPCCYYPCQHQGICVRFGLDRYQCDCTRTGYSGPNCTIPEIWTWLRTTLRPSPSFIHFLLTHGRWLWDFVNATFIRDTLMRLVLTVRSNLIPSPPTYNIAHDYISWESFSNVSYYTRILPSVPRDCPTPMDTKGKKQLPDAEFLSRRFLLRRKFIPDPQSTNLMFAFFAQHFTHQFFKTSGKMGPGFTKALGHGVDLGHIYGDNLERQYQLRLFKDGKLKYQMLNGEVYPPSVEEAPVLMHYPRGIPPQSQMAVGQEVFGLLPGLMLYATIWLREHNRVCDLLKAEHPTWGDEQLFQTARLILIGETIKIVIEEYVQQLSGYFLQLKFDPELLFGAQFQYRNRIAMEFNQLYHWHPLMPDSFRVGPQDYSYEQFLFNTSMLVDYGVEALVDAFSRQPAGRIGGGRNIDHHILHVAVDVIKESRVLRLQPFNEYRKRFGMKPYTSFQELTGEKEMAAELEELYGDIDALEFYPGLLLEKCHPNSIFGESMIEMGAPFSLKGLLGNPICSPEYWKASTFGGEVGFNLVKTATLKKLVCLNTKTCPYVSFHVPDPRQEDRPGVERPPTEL
Method: as §1, §2, §3, §4

[2] = system: carrageenin-induced edema of the hind paw; test: Carrageenin-induced paw edema in rats; settings: for Swelling volume: rat hind paw; for decrease in the edema size: after 1 h, versus control
Method: Sprague dawley rats (150-200 g) were used. Edema was induced by a single sub-plantar injection of carrageenin (1 mg/paw) into the left hind paw of the rat under light ether anesthesia. The total volume injected was always 0.1 ml. […] The results were expressed either as the increase in paw volume (ml) calculated by subtracting the basal volume or by calculating the area under the time-course curve (AUC; ml h) for each group.

| Compound | MPO activity relatively to IBD rats treated with 5-ASA [1] | MPO activity relatively to the (+) control of non-treated IBD rats [1] | IC50 (ovine COX-2) | Ration (COX ½) (ovine COX-2) | IC50 (ovine COX-1) | Swelling volume ([2]; 1 hr after carrageenin) | Swelling volume ([2]; 2 hr after carrageenin) | Swelling volume ([2]; 3 hr after carrageenin) | Swelling volume ([2]; 4 hr after carrageenin) | decrease in the edema size [2] |
| --- | --- | --- | --- | --- | --- | --- | --- | --- | --- | --- |
| CCCCC/C=C/C/C=C/C/C=C/CCCCC(=O)NCCS(=O)(=O)O [RNX006] | even a lower MPO activity | significantly lower MPO activity |  |  |  |  |  |  |  |  |
| CC/C=C\C/C=C/C/C=C/C/C=C/C/C=C/C/C=C/CCC(=O)N1CC(O)CC1C(=O)O (stereo not drawn) [RNX005] |  |  | 0.081 µM | 528.68 | 42.8 µM |  |  |  |  |  |
| CCCCC/C=C/C/C=C/CCCCCCCC(=O)N1CC(O)CC1C(=O)O (stereo not drawn) [RNX002] |  |  | 0.51 µM | 103.3 | 52.7 µM | 0.9 ± 0.06 mL | 1.6 ± 0.09 mL | 2.3 ± 0.11 mL | 2.1 ± 0.13 mL | 43.4% |
| CCCCCCCC/C=C/CCCCCCCC(=O)N1CC(O)CC1C(=O)O (stereo not drawn) [RNX001] |  |  | 1.3 µM | 55.7 | 72.5 µM | 1.1 ± 0.09 mL | 1.3 ± 0.13 mL | 1.9 ± 0.1 mL | 1.8 ± 0.13 mL | 31% |
| CC/C=C\C/C=C/C/C=C/C/C=C/C/C=C/CCCC(=O)N1CC(O)CC1C(=O)O (stereo not drawn) [RNX004] |  |  | 0.085 µM | 464.11 | 39.5 µM |  |  |  |  |  |

From patent US20140121260A1, “NOVEL CONJUGATES OF POLYUNSATURATED FATTY ACIDS WITH AMINES AND THERAPEUTIC USES THEREOF” (MedWell Laboratories Ltd., priority 2006, published 2014)
